Results as given in patent publication US20260034119A1, “5-METHOXY-N,N-[…][…], THEIR […], AND METHODS FOR TREATMENT OF NEUROLOGICAL, […], AND SUBSTANCE USE DISORDERS” (priority 2023, published 2026).
“Also recorded” adds a separate entry of the source.

What was measured:
[1] = Mouse plasma protein binding; type: in vitro ADME; conditions: for fraction unbound: mouse, plasma
[2] = Mouse brain tissue binding; type: in vitro ADME; conditions: for fraction unbound: mouse, brain tissue
C57BL/6J mice = assay: Head twitch response (HTR); type: in vivo, mouse; conditions: s.c., presence or absence of 5-HT1A antagonist WAY-100635
Protocol: The head-twitch response evaluation was performed by trained observers who were blinded to both drug and dose. Mice were habituated to the testing room 30 min. The body weight of each mouse was recorded. The HTR was defined as a rapid rotational movement of the head around the longitudinal axis of the animals' body. Mice were administered with vehicle or WAY100,635 (1 mg/kg or 2 mg/kg, sc). Fifteen minutes after the pretreatment injection mice were administered either 4F, 5-MeO-MET (0.1, 0.3, 1 or 3 mg/kg, sc) or 5-MeO-MET (0.3, 1, 3, and 10 mg/kg, sc) and placed in a novel observation cage. An overhead camera (GoPro HERO9 at a 120 Hz, San Mateo, CA, US) recorded their movements. Observers scored HTR from recorded footage for the first 10-min period.

OCT2 = molecular target: T1, OCT2 (Homo sapiens, UniProt O15244); assay: OCT2 uptake inhibition; type: cell-based; conditions: compared with 5-HT1A
T1 construct: expressed in transfected cells; host or cells: Flp-In T-Rex cell line (ThermoFisher), tetracycline-induced
T1 sequence (O15244 1-555): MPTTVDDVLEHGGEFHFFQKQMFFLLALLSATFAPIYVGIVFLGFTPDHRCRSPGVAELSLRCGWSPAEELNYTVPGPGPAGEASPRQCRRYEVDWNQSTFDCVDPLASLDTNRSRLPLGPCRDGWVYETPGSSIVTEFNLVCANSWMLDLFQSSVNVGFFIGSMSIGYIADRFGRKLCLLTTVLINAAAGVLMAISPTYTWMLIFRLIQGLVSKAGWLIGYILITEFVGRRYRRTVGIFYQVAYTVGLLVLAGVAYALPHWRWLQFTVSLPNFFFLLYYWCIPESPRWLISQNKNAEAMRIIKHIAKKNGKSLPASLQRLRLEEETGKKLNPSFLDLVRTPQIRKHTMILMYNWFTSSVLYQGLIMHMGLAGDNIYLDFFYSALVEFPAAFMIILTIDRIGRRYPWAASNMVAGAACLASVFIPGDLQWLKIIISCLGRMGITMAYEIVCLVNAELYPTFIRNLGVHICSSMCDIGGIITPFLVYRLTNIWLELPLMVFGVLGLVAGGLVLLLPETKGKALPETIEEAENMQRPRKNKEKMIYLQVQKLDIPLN
Protocol: Inducible cell lines stably expressing OCT1, OCT2, or PMAT were generated using the Flp-In T-Rex cell line (ThermoFisher) according to manufacturer recommendations. Cells were maintained in DMEM supplemented with 10% FBS, 100 μg/ml hygromycin B (GoldBio), and 10 μg/ml blasticidin (GoldBio). To measure uptake inhibition, cells were seeded into poly-L-lysine coated clear-bottom 384-well plates at a density of 25,000 cells per well in DMEM containing 10% FBS and 2 μg/ml of tetracycline (Sigma) to induce transporter expression. […] Cells were incubated with drug for 30 min at 37° C. Fluorescent substrate was then added to the cells. […] Cells were incubated with respective substrates for an hour at 37° C. OCT2 cells were read directly in a Victor NIVO plate reader using 495 nm excitation and 580 emission filter for 0.1 s. OCT1 and PMAT cells were washed in HBSS supplemented with 20 mM HEPES pH 7.4 before reading in a Victor NIVO plate reader using 435 nm excitation and 480 nm emission filter for 0.1 s.

5-HT2A V366N = molecular target: T2, 5-HT2A V366N (Homo sapiens, UniProt P28223, V366N); assay: Gq BRET at mutant 5-HT2A V366N; type: cell-based; conditions: Gq BRET, 5-HT2A V366N^7.39
T2 construct: expressed in transfected cells; host or cells: HEK293-T

[3] = Human plasma protein binding; type: in vitro ADME; conditions: for fraction unbound: human, plasma
5-HT1A = 5-HT1A (Homo sapiens, UniProt P08908); assay: BRET signaling assay: 5-HT1A-mediated activation of heterotrimeric Gi1 (TRUPATH, HEK293-T)
SERT = molecular target: T3, SERT (Homo sapiens, UniProt P31645); assay: Serotonin transporter (SERT) uptake inhibition; type: cell-based; conditions: compared with 5-HT1A
T3 construct: expressed in transfected cells; host or cells: HEK293-T
Protocol: The uptake inhibition assay was performed the following day. […] To each well, 30 μl of HBSS containing 20 mM HEPES, 0.1% BSA, and 0.01% ascorbic acid and 15 μl of 3× drug dilutions were added. Cells were then incubated at 37° C. for 45 min. A final concentration of 10 μM FFN246 (Aobious) (Henke et al. 2018) was added to each well, and cells were incubated for an additional hour at 37° C. […] Data was plotted as a function of drug concentration, normalized to % citalopram inhibition, and analyzed using “log(inhibitor) vs. response” in GraphPad Prism 8.0.

[4] = test system: all human 5-HT receptor subtypes; assay: PRESTO-TANGO arrestin-recruitment assay; type: cell-based; conditions: compared with 5-HT1A
Protocol: The receptor contructs were obtained from Addgene and contain the TEV cleavage site and the tetracycline transactivator (tTA) fused to the C terminus of the receptor. For the assay, constructs were transfected into HTLA cells (kindly provided by Dr. Bryan Roth, University of North Carolina), which express TEV fused-β-Arrestin2 and a tetracycline transactivator-driven luciferase and are necessary for this assay. A day before the assay cells were cultured in DMEM supplemented with 1% dFBS and transfected with 8 μg of DNA per 7 million cells in a 10 cm plate using PEI transfection. The next day, 20,000 cells in 40 μl were then plated in poly-L-lysine-coated clear-bottom 384-well plates in the same media and incubated for at least 5 hr before stimulation. […] After 16-24 hr overnight incubation, media and drug solutions were aspirated and 20 μl per well of BrightGlo reagent (purchased from Promega, after 1:20 dilution) was added per well. The plate was incubated for 20 min at room temperature in the dark before being counted using a MicroBeta TriLux liquid scintillation counter.

[5] = read-out: % Bound Mean (converted)
[6] = replicate R1, read-out: % Bound R1 (converted)
[7] = replicate R2, read-out: % Bound R2 (converted)

Sequence of 5-HT1A (P08908 whole entry): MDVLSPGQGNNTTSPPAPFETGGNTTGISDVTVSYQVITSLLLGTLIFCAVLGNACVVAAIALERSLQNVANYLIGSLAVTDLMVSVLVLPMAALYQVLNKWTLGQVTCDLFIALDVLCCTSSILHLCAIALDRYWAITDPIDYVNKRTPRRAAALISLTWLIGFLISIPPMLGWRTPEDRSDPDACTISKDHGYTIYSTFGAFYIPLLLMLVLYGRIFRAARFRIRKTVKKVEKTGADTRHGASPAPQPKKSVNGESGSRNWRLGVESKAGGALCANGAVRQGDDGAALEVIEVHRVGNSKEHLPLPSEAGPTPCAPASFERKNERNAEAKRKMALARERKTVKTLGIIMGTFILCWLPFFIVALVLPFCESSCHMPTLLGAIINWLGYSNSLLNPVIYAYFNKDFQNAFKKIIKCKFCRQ
T2 sequence (P28223 whole entry V366N): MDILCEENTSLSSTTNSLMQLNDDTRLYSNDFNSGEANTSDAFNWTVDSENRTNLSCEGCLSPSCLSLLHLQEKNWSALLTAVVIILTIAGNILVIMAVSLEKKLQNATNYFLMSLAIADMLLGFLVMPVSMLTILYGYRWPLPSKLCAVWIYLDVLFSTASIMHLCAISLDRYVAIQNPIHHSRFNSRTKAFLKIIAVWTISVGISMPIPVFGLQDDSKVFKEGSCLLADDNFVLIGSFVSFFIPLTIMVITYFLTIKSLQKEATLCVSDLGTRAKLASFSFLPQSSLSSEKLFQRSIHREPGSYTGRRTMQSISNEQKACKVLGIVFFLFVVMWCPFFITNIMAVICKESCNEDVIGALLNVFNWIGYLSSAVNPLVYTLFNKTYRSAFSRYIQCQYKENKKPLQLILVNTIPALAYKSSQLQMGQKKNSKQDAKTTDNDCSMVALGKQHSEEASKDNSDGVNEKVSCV
T3 sequence (P31645 whole entry, species assumed): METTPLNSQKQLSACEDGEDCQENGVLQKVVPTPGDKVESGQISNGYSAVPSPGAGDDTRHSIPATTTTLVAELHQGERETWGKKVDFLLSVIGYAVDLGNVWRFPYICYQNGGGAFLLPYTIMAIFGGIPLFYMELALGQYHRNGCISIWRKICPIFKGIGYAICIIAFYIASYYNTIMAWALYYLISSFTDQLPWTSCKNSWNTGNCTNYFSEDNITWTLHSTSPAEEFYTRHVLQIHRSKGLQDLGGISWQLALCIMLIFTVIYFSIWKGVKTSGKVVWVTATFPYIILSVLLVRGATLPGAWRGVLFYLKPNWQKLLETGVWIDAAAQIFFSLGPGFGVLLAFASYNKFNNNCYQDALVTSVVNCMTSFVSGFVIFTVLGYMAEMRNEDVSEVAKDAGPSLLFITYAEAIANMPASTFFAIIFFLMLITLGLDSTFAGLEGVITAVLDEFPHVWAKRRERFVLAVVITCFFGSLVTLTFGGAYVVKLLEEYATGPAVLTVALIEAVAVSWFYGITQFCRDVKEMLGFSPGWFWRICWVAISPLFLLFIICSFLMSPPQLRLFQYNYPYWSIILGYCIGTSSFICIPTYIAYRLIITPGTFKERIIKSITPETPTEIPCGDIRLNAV

Compound: COc1ccc2[nH]cc(CCN3CCCC3)c2c1F [4-F, 5-MeO-PyrT, 4-Fluoro, 5-methoxypyrrolidinyl-tryptamine]
- recovery [1]: 84.7%
- % Compound remaining at 4 h ([1]; 4 h): 105.6%
- fraction unbound [1, 5]: 0.626
- fraction unbound ([1]; read-out: % Unbound): 0.626
- fraction unbound ([1]; read-out: fu): 0.626
- fraction unbound [1, 6]: 0.68
- fraction unbound [1, 7]: 0.573
- brain tissue binding [2]: 82.5%
- recovery [2]: 88%
- % Compound remaining at 4 h ([2]; 4 h): 96%
- fraction unbound [2, 5]: 0.175
- fraction unbound ([2]; read-out: % Unbound): 0.175
- fraction unbound ([2]; read-out: fu): 0.175
- fraction unbound [2, 6]: 0.157
- fraction unbound [2, 7]: 0.193
- head-twitch response (HTR), measure of 5-HT2A-mediated hallucinogenic activity (C57BL/6J mice): no preclinical signs of hallucinogenic effects; also recorded: did not produce notable HTR
- activity at other neurotransmitter transporters (OCT2) (OCT2): substantially lower activity
- pEC50 (5-HT2A V366N): (6.8,
- EC50 (5-HT2A V366N; read-out: EC50): 0.157 µM
- recovery [3]: 81.8%
- % Compound remaining at 4 h ([3]; 4 h): 97.9%
- fraction unbound [3, 5]: 0.74
- fraction unbound ([3]; read-out: % Unbound): 0.74
- fraction unbound ([3]; read-out: fu): 0.74
- fraction unbound [3, 6]: 0.778
- fraction unbound [3, 7]: 0.702
- Emax, 5-HT1A-mediated activation of Gi1 (BRET) (5-HT1A): 102.8 % of 5-HT
- pEC50 (5-HT1A; Gi1 BRET, 5-HT1A WT): (9.43,
- EC50 (5-HT1A; read-out: Gi BRET EC50): 0.00037 µM
- activity at the serotonin transporter (SERT): substantially lower activity
- activity at all other G protein-coupled serotonin receptors [4]: substantially lower activity
